Test: xn = mol fraction of the nth substance listed, in the solute-free solvent

For `CC1CCC2(C(=O)O)CCC3(C)C(=CCC4C5(C)CCC(O)C(C)(C)C5CCC43C)C2C1C` (centres undefined) + CC(C)O + O, the “solubility (g/100 g solution)” value (293.15 K, x2 = 0.0908) was 0.00219, the “solubility (g/100 g solution)” value (293.15 K, x2 = 0.1389) was 0.00363 and the “solubility (g/100 g solution)” value (293.15 K, x2 = 0.1969) was 0.0293. For the same compound, the “solubility (g/100 g solution)” value (293.15 K, x2 = 0.2681) was 0.0944, the “solubility (g/100 g solution)” value (293.15 K, x2 = 0.3575) was 0.146 and the “solubility (g/100 g solution)” value (293.15 K, x2 = 0.4734) was 0.171. For the same compound, the “solubility (g/100 g solution)” value (298.15 K, x2 = 0.0908) was 0.00363, the “solubility (g/100 g solution)” value (298.15 K, x2 = 0.1389) was 0.00474 and the “solubility (g/100 g solution)” value (298.15 K, x2 = 0.1969) was 0.0352. For the same compound, the “solubility (g/100 g solution)” value (298.15 K, x2 = 0.2681) was 0.118, the “solubility (g/100 g solution)” value (298.15 K, x2 = 0.3575) was 0.195 and the “solubility (g/100 g solution)” value (298.15 K, x2 = 0.4734) was 0.276. For the same compound, the “solubility (g/100 g solution)” value (303.15 K, x2 = 0.0908) was 0.00394, the “solubility (g/100 g solution)” value (303.15 K, x2 = 0.1389) was 0.00741 and the “solubility (g/100 g solution)” value (303.15 K, x2 = 0.1969) was 0.0473. The “solubility (g/100 g solution)” value (303.15 K, x2 = 0.2681) was 0.13, the “solubility (g/100 g solution)” value (303.15 K, x2 = 0.3575) was 0.236 and the “solubility (g/100 g solution)” value (303.15 K, x2 = 0.4734) was 0.328. For the same compound, the “solubility (g/100 g solution)” value (308.15 K, x2 = 0.0908) was 0.00575, the “solubility (g/100 g solution)” value (308.15 K, x2 = 0.1389) was 0.00959 and the “solubility (g/100 g solution)” value (308.15 K, x2 = 0.1969) was 0.0614. For the same compound, the “solubility (g/100 g solution)” value (308.15 K, x2 = 0.2681) was 0.142, the “solubility (g/100 g solution)” value (308.15 K, x2 = 0.3575) was 0.284 and the “solubility (g/100 g solution)” value (308.15 K, x2 = 0.4734) was 0.378. For the same compound, the “solubility (g/100 g solution)” value (313.15 K, x2 = 0.0908) was 0.00586, the “solubility (g/100 g solution)” value (313.15 K, x2 = 0.1389) was 0.0147 and the “solubility (g/100 g solution)” value (313.15 K, x2 = 0.1969) was 0.0752. For the same compound, the “solubility (g/100 g solution)” value (313.15 K, x2 = 0.2681) was 0.158, the “solubility (g/100 g solution)” value (313.15 K, x2 = 0.3575) was 0.359 and the “solubility (g/100 g solution)” value (313.15 K, x2 = 0.4734) was 0.529. The “solubility (g/100 g solution)” value (318.15 K, x2 = 0.0908) was 0.00613, the “solubility (g/100 g solution)” value (318.15 K, x2 = 0.1389) was 0.0158 and the “solubility (g/100 g solution)” value (318.15 K, x2 = 0.1969) was 0.0821. The “solubility (g/100 g solution)” value (318.15 K, x2 = 0.2681) was 0.22, the “solubility (g/100 g solution)” value (318.15 K, x2 = 0.3575) was 0.387 and the “solubility (g/100 g solution)” value (318.15 K, x2 = 0.4734) was 0.672. The “solubility (g/100 g solution)” value (323.15 K, x2 = 0.0908) was 0.00653, the “solubility (g/100 g solution)” value (323.15 K, x2 = 0.1389) was 0.0187 and the “solubility (g/100 g solution)” value (323.15 K, x2 = 0.1969) was 0.0985. The “solubility (g/100 g solution)” value (323.15 K, x2 = 0.2681) was 0.239, the “solubility (g/100 g solution)” value (323.15 K, x2 = 0.3575) was 0.493 and the “solubility (g/100 g solution)” value (323.15 K, x2 = 0.4734) was 1.01. The “solubility (g/100 g solution)” value (328.15 K, x2 = 0.0908) was 0.00668, the “solubility (g/100 g solution)” value (328.15 K, x2 = 0.1389) was 0.036 and the “solubility (g/100 g solution)” value (328.15 K, x2 = 0.1969) was 0.111. For the same compound, the “solubility (g/100 g solution)” value (328.15 K, x2 = 0.2681) was 0.282, the “solubility (g/100 g solution)” value (328.15 K, x2 = 0.3575) was 0.514 and the “solubility (g/100 g solution)” value (328.15 K, x2 = 0.4734) was 1.16. The “solubility (g/100 g solution)” value (333.15 K, x2 = 0.0908) was 0.0109, the “solubility (g/100 g solution)” value (333.15 K, x2 = 0.1389) was 0.0388 and the “solubility (g/100 g solution)” value (333.15 K, x2 = 0.1969) was 0.13. The “solubility (g/100 g solution)” value (333.15 K, x2 = 0.2681) was 0.33, the “solubility (g/100 g solution)” value (333.15 K, x2 = 0.3575) was 0.656 and the “solubility (g/100 g solution)” value (333.15 K, x2 = 0.4734) was 1.21.

From the CheMixHub drug solubility set
